Results reported in US12213482B2, “Fungicide enhancers effective for treating plants infected with fungal pathogens” (Board of Regents, The University of Texas System, priority 2015, dated 2025).

Columns and labels:
[1] = tested on: Mycosphaerella graminicola isolate FLU4-02; assay: Fungicide sensitivity testing by OD in 96 well plates, epoxiconazole plus enhancers; format: cell-based; conditions: Zymoseptoria tritici, Enhancer Concentration 0 μg ml^−1 (epoxiconazole alone; one value per enhancer series)
[2] = tested on: Septoria tritici isolate G3-03; assay: Fungicide sensitivity testing by OD in 96 well plates, fungicides plus Enhancer A.I.1; format: cell-based
[3] = Enhancer A.I.1 Concentration 0 μg ml^−1
[4] = Enhancer A.I.1 Concentration 0.003 μg ml^−1
[5] = Enhancer A.I.1 Concentration 0.016 μg ml^−1
[6] = Enhancer A.I.1 Concentration 0.08 μg ml^−1
[7] = Enhancer A.I.1 Concentration 0.4 μg ml^−1
[8] = Enhancer A.I.1 Concentration 2.0 μg ml^−1
[9] = Enhancer A.I.1 Concentration 10 μg ml^−1

SMILES | EC50 [1] | EC50 of the fungicide [2, 3] | EC50 of the fungicide [2, 4] | EC50 of the fungicide [2, 5] | EC50 of the fungicide [2, 6] | EC50 of the fungicide [2, 7] | EC50 of the fungicide [2, 8] | EC50 of the fungicide [2, 9]
Fc1ccc([C@]2(Cn3cncn3)O[C@H]2c2ccccc2Cl)cc1 (racemic) [Epoxiconazole] | 0.091 µg/mL | 0.142 µg/mL | 0.142 µg/mL | 0.141 µg/mL | 0.145 µg/mL | 0.06 µg/mL | 0.008 µg/mL | 0.004 µg/mL
CO/C=C(/C(=O)OC)c1ccccc1Oc1cc(Oc2ccccc2C#N)ncn1 [Azoxystrobin] | – | 7.210 µg/mL | 7.339 µg/mL | 7.071 µg/mL | 6.914 µg/mL | 6.958 µg/mL | 5.157 µg/mL | 2.816 µg/mL
COC(=O)Nc1nc2ccccc2[nH]1 [Carbendazim] | – | >50 µg/mL | >50 µg/mL | >50 µg/mL | >50 µg/mL | >50 µg/mL | >50 µg/mL | >50 µg/mL
N#Cc1c(Cl)c(Cl)c(Cl)c(C#N)c1Cl [Chlorothalonil] | – | 0.370 µg/mL | 0.369 µg/mL | 0.357 µg/mL | 0.369 µg/mL | 0.335 µg/mL | 0.36 µg/mL | 0.364 µg/mL
Cc1cc(C2CC2)nc(Nc2ccccc2)n1 [Cyprodinil] | – | 3.055 µg/mL | 3.135 µg/mL | 2.995 µg/mL | 2.838 µg/mL | 3.244 µg/mL | 4.046 µg/mL | 4.220 µg/mL
